Values quoted from earlier work, collected in patent US20050039221A1, “Phenotypic effects of ubiquinone deficiencies and methods of screening thereof” (priority 2001, published 2005).

What was measured:
complex II = details: synthetic DMQ2
complex I = details: synthetic DMQ2
[1] = rodents

SMILES	Function as co-factor for electron transport from complex II (complex II)	Function as co-factor for electron transport from complex I (complex I)	Uptake of dietary UQ, share of the initially ingested ubiquinone [1]
COC1=CC(=O)C(C)=C(C/C=C(\C)CCC=C(C)C)C1=O [DMQ2]	more poorly	can function as a co-factor	–
COC1=C(OC)C(=O)C(C/C=C(\C)CC/C=C(\C)CC/C=C(\C)CC/C=C(\C)CC/C=C(\C)CC/C=C(\C)CC/C=C(\C)CC/C=C(\C)CC/C=C(\C)CCC=C(C)C)=C(C)C1=O [UQ, Ubiquinone]	–	–	2-3%
